Results taken from US20210369698A1 (Attillaps Holdings, priority 2019, published 2021).

System: Demodex mites
Conditions: 10% chloroquine in water; in vitro; water control 44.8 hours
Procedure: In vitro efficacy and mite lifetimes: Relative efficacy of various formulations are evaluated with a demodex survival time experiments. FIG. 3 tabulates demodex survival time, expressed in terms of LT50 (time at which 50% of demodex mites are killed) and/or average minutes to death for various active agents.

## CCN(CC)CCCC(C)Nc1ccnc2cc(Cl)ccc12 (stereo not shown) [chloroquine, Chloroquine]
  LT50 (time at which 50% of demodex mites are killed): 31.6 h
